Literature values in patent US20150231081A1, “DELAYED RELEASE POSACONAZOLE TABLETS” (CADILA HEALTHCARE LIMITED, priority 2014, published 2015).
Where two headings read alike, the source gives them in different places.

## CC[C@@H]([C@H](C)O)n1ncn(-c2ccc(N3CCN(c4ccc(OC[C@@H]5CO[C@@](Cn6cncn6)(c6ccc(F)cc6F)C5)cc4)CC3)cc2)c1=O [Posaconazole free base, 4-[4-[4-[4-[[(3R,5R)-5-(2,4-difluorophenyl)tetrahydro-5-(1H-1,2,4-triazol-1-ylmethyl)-3-furanyl]methoxy]phenyl]-1-piperazinyl]phenyl]-2-[(1S,2S)-1-ethyl-2-hydroxypropyl]-2,4-dihydro-3H-1,2,4-triazol-3-one]
Environments where the pH is about pH 6.4 or more basic
  solubility: less than 1 microgram/mL
In stomach pH
  solubility: approximately 0.8 mg/mL
